In patent US6172064A, “Formamides as therapeutic agents” (Glaxo Wellcome Inc., priority 1999, dated 2001):
pIC50, pKi: −log10 of the molar value. Like-named read-outs stand apart in the source and are kept apart here.

How the values were obtained:
[1] = target: 20 kD truncated collagenase-3 (MMP-13); assay: Matrix Metalloprotease Inhibition, Collagenase-3; format: biochemical; settings: 30 pM enzyme, 10 μM fluorogenic substrate, pH=7.6; approximate IC50 equivalent to Ki ([S]<<Km)
Protocol: (§1) The potency of compounds of the invention as inhibitors of 19 kD truncated collagenase-1 (MMP-1), 20 kD truncated collagenase-3 (MMP-13), stromelysin-1 (MMP-3), and 50 kD truncated gelatinase B (MMP-9) is determined according to the general procedure of Bickett et. al. (Anal. Biochem. 1993, 212, 58-64) using the fluorogenic substrate, DNP-Pro-Cha-Gly-Cys(Me)-His-Ala-Lys(NMA)--NH2 (DNP=2,4-dinitrophenyl,NMA=N-methylanthranilic acid). Assays are conducted in a total volume of 0.180 mL assay buffer (200 mM NaCl, 50 mM Tris, 5 mM CaCl2, 10 μM ZnSO4, 0.005% Brij 35, pH=7.6) in each well of a black 96 well microtiter plate. 19 kD collagenase-1, 20 kD collagenase-3, stromelysin-1,and 50 kD gelatinase B concentrations are adjusted to 500 pM, 30 pM, 5 nM, and 100 pM, respectively. A dose response is generated using an eleven-point, 3-fold serial dilution with initial starting test compound concentrations of 100, 10, or 1 μM. Inhibitor and enzyme reactions are incubated for 30 minutes at ambient temperature and then initiated with 10 μM fluorogenic substrate (above). The product formation is measured at Excitation343 /Emission450 nm after 45-180 minutes using a Fluostar SLT fluorescence analyzer. Percent inhibition is calculated at each inhibitor concentration and the data were plotted using standard curve fitting programs. Approximate IC50 values were determined from these curves. Assays were run at low substrate concentration ([S]<<Km) such that the calculated IC50 values are equivalent to Ki within experimental error.

stromelysin-1 (MMP-3) = stromelysin-1 (MMP-3) (Homo sapiens, UniProt P08254); assay: Matrix Metalloprotease Inhibition, Stromelysin-1; format: biochemical; settings: 5 nM enzyme, 10 μM fluorogenic substrate, pH=7.6; approximate IC50 equivalent to Ki ([S]<<Km)
Protocol: as §1

[2] = target: 50 kD truncated gelatinase B (MMP-9); assay: Matrix Metalloprotease Inhibition, Gelatinase B; format: biochemical; settings: 100 pM enzyme, 10 μM fluorogenic substrate, pH=7.6; approximate IC50 equivalent to Ki ([S]<<Km)
Protocol: as §1

A549 Human Lung = assay: Xenograft in vivo assay, A549; settings: female NU/NU mice, p.o. once a day, 14 days, 30 mg/kg and 90 mg/kg
Protocol: (§2) Female NU/NU mice with a weight of 21±2 g are weighed and used. Control and test animals are injected subcutaneously in the axillary region with a suspension of 2×10^6 viable tumor cells in 200 uL in PBS±matrigel on day 0. Tumors are allowed to grow for 10 to 14 days prior to drug administration. Doses of test drug are given on a mg/kg basis according to the mean body weight for each cage. For each drug, two doses are used, 30 mg/kg and 90 mg/kg, and are administered by p.o. route once a day over a 14 day time span. Tumor weight is calculated from two perpendicular caliper measurements of the tumor using the formula, tumor weight=length×width2.div.2 in millimeters. For each animal, tumor weight is monitored over the course of the experiment, and expressed as the percent of the tumor's weight. For each group, the mean increase in tumor weight over the course of the experiment is calculated (tumor weightday […]-tumor weightday 14=≈tumor weight) and the results expressed as percent inhibition of tumor growth with respect to the control group [1-(≈tumor weight treated group/(≈tumor weight control group)]×100. Results are presented in Table 4. The criterion for antitumor activity is 25% inhibition of tumor growth after 2 weeks of dosing (day 14).

[3] = target: T1, TNFα converting enzyme (membrane preparation from MonoMac 6 cells) (Homo sapiens, UniProt P78536); assay: TNFα Converting Enzyme Inhibition; format: biochemical
T1 construct: Membrane preparation from MonoMac 6 cells; endogenous in cells; host or cells: MonoMac 6 cells (membrane preparation, subfractionated extract)
Protocol: The potency of compounds of the invention as inhibitors of cell-free tumor necrosis factor α converting enzyme is determined as follows: Membrane preparation from MonoMac 6 cells (subfractionated extract from equivalent of 6×10^6 cells per 60 μl assay) is incubated for 1 hr with 200 nM radiolabeled substrate (Biotin-SPLAQAVRSSSRT-(^3 H)P-S--NH2, 4.1 Ci/mmol, ref #0935 from Zeneca) in 10 mM hepes buffer, 250 mM sucrose, pH=7.5. The reaction is quenched by addition of streptavidin SPA beads (Amersham RPNQ0006), with excess binding capacity relative to substrate, suspended in 250 mM EDTA, pH=8.0. Binding is complete within 15 minutes and plates are counted in a Wallac 1450 Microbeta liquid scintillation counter. Percent inhibition is calculated at each inhibitor concentration and the data were plotted using standard curve fitting programs. Approximate IC50 values were determined from these curves. Assays were run at low substrate concentration ([S]<<Km) such that the calculated IC50 values are equivalent to Ki within experimental error.

Colo 205 Human Colon = assay: Xenograft in vivo assay, Colo 205; settings: female NU/NU mice, p.o. once a day, 14 days, 30 mg/kg and 90 mg/kg
Protocol: as §2

[4] = target: T2, 19 kD truncated collagenase-1 (MMP-1) (Homo sapiens, UniProt P03956); assay: Matrix Metalloprotease Inhibition, Collagenase-1; format: biochemical; settings: 500 pM enzyme, 10 μM fluorogenic substrate, pH=7.6; approximate IC50 equivalent to Ki ([S]<<Km)
T2 construct: 19 kD truncated collagenase-1 (MMP-1)
T2 sequence (P03956 101-269 limits assumed): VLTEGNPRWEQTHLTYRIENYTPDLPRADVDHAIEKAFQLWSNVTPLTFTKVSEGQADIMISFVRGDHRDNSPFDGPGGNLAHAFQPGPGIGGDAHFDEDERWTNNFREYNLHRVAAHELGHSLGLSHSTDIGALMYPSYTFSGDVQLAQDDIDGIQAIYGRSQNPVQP
Protocol: as §1

SW 620 Human Colon = assay: Xenograft in vivo assay, SW 620; settings: female NU/NU mice, p.o. once a day, 14 days, 30 mg/kg and 90 mg/kg
Protocol: as §2

[5] = test system: TNFα release from LPS/PMA-stimulated MonoMac 6 cells; assay: Cell-Based TNFα Release Inhibition; settings: Homo sapiens, MONO-MAC-6, LPS/PMA stimulation, 2 hours, 37° C.
Protocol: The potency of compounds of the invention as inhibitors of release of soluble tumor necrosis factor α from stimulated monocytes in vitro is determined as follows: LPS/PMA solution for assay consisting of a) 4 μL of 5 mg/mL LPS stock and b) 6 μL of 10 mg/mL PMA stock are added to 500 μL of medium (RPMI 1640 (Gibco)+10% FBS+penicillin/streptomycin+1-glutamine). This solution is then diluted 1:1000 (40 ng/mL and 120 ng/mL) for use later in the assay. Compounds (10 mM) are serially diluted 1:3 in DMSO. Compound dilutions (20 μL) are added to a sterile round bottom 96 well plate (20 μL:200 μL total volume=1:10 for final concentrations of […] for test compounds). MonoMac 6 cell suspension (130 μL, 1.5×10^6 cells/mL) is then added to each well resulting in 2×10^5 cells/well. LPS/PMA (50 μL) solution is then added to each well to begin stimulation (final concentrations of […] and 30 ng/mL respectively). The plate is incubated at 37° C. for 2 hours then spun at 1,500 rpm for 3 minutes to pellet cells. The supernatant (120 μL/well) is removed to a new round bottom 96 well plate and diluted 1:10 in PBS. Then, 20 μL of the supernatant is transferred to a Cistron TNFα ELISA plate and processed according to the manufacturer's instructions to quantitate levels of TNFα. […]

[6] = test system: Lewis Lung M27 Murine Lung; assay: Xenograft in vivo assay, Lewis Lung M27; settings: female NU/NU mice, p.o. once a day, 14 days, 30 mg/kg and 90 mg/kg
Protocol: as §2

[7] = test system: Mat Ly Lu Murine Prostate; assay: Xenograft in vivo assay, Mat Ly Lu; settings: female NU/NU mice, p.o. once a day, 14 days, 30 mg/kg and 90 mg/kg
Protocol: as §2

B16B6 Murine Melanoma = assay: Xenograft in vivo assay, B16B6; settings: female NU/NU mice, p.o. once a day, 14 days, 30 mg/kg and 90 mg/kg
Protocol: as §2

[8] = MonoMac 6 membrane preparation, 200 nM radiolabeled substrate, pH=7.5, 1 hr, approximate IC50 equivalent to Ki ([S]<<Km), read-out: TNFα Converting Enzyme Ki

Sequence of stromelysin-1 (MMP-3) (P08254 100-477): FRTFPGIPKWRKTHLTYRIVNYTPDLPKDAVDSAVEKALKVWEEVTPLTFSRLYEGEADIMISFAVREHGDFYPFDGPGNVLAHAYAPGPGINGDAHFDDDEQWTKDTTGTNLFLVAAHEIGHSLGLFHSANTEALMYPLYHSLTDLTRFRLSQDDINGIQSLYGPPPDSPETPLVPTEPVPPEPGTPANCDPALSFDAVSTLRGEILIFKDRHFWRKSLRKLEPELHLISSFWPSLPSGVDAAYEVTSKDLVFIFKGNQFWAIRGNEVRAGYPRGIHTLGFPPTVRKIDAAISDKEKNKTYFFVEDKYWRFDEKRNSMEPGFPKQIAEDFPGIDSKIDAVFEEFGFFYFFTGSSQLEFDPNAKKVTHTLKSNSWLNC
T1 sequence (P78536 215-824): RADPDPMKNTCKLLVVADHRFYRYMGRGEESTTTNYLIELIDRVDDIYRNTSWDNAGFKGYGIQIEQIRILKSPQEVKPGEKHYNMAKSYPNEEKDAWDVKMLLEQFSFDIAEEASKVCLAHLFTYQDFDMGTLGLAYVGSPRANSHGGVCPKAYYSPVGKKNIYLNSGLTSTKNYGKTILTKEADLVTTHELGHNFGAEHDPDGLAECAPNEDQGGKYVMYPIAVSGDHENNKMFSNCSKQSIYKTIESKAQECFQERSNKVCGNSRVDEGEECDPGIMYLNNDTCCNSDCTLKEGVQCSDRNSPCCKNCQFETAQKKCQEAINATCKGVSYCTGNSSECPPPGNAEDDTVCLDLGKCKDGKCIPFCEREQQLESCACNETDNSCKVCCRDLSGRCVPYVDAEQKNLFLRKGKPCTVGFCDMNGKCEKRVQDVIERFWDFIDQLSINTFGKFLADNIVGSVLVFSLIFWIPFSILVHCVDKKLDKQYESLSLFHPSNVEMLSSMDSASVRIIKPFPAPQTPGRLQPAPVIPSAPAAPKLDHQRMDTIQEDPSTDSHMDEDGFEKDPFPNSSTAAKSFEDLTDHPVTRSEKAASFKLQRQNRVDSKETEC

| pKi [1] | pKi (stromelysin-1 (MMP-3)) | pKi [2] | pKi [4] | pKi [3, 8] | SMILES | percent inhibition of tumor growth (A549 Human Lung) | pKi [3] | percent inhibition of tumor growth (Colo 205 Human Colon) | percent inhibition of tumor growth (SW 620 Human Colon) | pIC50 [5] | percent inhibition of tumor growth [6] | percent inhibition of tumor growth [7] | percent inhibition of tumor growth (B16B6 Murine Melanoma) |
| --- | --- | --- | --- | --- | --- | --- | --- | --- | --- | --- | --- | --- | --- |
| 9.30 to 12.00 | 7.30 to 8.30 | 9.30 to 12.00 | 7.30 to 8.30 | < 6.30 | CNC(=O)[C@@H](NC(=O)[C@H](CCCc1ccc(Cl)cc1)[C@H](C)N(O)C=O)C(C)(C)C [Example 2] |  |  |  |  |  |  |  |  |
| 9.30 to 12.00 | 6.30 to 7.30 | 8.30 to 9.30 | 7.30 to 8.30 | 6.30 to 7.30 | CNC(=O)[C@@H](NC(=O)[C@H](CCCc1cccs1)[C@H](C)N(O)C=O)C(C)(C)C [Example 3] |  |  |  |  |  |  |  |  |
| 9.30 to 12.00 | 7.30 to 8.30 | 8.30 to 9.30 | 6.30 to 7.30 | 6.30 to 7.30 | CC(C)[C@@H]([C@@H](CCCc1ccc(Cl)cc1)C(=O)N[C@H](C(=O)NCc1cccnc1)C(C)(C)C)N(O)C=O [Example 9] |  |  |  |  |  |  |  |  |
| 9.30 to 12.00 | 6.30 to 7.30 | 8.30 to 9.30 | 6.30 to 7.30 | < 6.30 | C[C@@H]([C@@H](CCCc1ccc(Cl)cc1)C(=O)N[C@H](C(=O)NCc1ccccn1)C(C)(C)C)N(O)C=O [Example 20, (2R,3S)-3-(Formylhydroxyamino)-2-(3-(4-chlorophenyl)-1-propyl)-butanoic Acid [(1S)-2,2-Dimethyl-(1-(2-pyridylmethyl)carbamoyl)-1-propyl]amide] |  |  |  |  |  |  |  |  |
| 9.30 to 12.00 | 7.30 to 8.30 | 8.30 to 9.30 | 6.30 to 7.30 | 6.30 to 7.30 | C[C@@H]([C@@H](CCCc1ccc(Cl)cc1)C(=O)N[C@H](C(=O)NCCCN1CCOCC1)C(C)(C)C)N(O)C=O [Example 24, (2R,3S)-3-(Formylhydroxyamino)-2-(3-(4-chlorophenyl)-1-propyl)-butanoic Acid[(1S)-2,2-Dimethyl-(1-(3-(4-morpholino)-1-propyl)carbamoyl)-1-propyl]amide] |  |  |  |  |  |  |  |  |
| 8.30 to 9.30 | 7.30 to 8.30 | 8.30 to 9.30 | 6.30 to 7.30 | 6.30 to 7.30 | CNC(=O)[C@@H](NC(=O)[C@H](CCCc1ccc(C)cc1)[C@H](C)N(O)C=O)C(C)(C)C [Example 52, (2R,3S)-3-(Formylhydroxyamino)-2-(3-(4-methylphenyl)-1-propyl)butanoic Acid [(1S)-2,2-Dimethyl-(1-methylcarbamoyl)-1-propyl]amide] |  |  |  |  |  |  |  |  |
| 8.30 to 9.30 | 7.30 to 8.30 | 8.30 to 9.30 | 6.30 to 7.30 | < 6.30 | CNC(=O)[C@@H](NC(=O)[C@H](CCCCCc1ccccc1)[C@H](C)N(O)C=O)C(C)(C)C [Example 61, (2R,3S)-3-(Formylhydroxyamino)-2-(5-phenyl-1-pentyl)butanoic Acid [(1S)-2,2-Dimethyl-(1-methylcarbamoyl)-1-propyl]amide] |  |  |  |  |  |  |  |  |

| SMILES | pKi [1] | pKi (stromelysin-1 (MMP-3)) | pKi [2] | pKi [4] | pKi [3, 8] | percent inhibition of tumor growth (A549 Human Lung) | pKi [3] | percent inhibition of tumor growth (Colo 205 Human Colon) | percent inhibition of tumor growth (SW 620 Human Colon) | pIC50 [5] | percent inhibition of tumor growth [6] | percent inhibition of tumor growth [7] | percent inhibition of tumor growth (B16B6 Murine Melanoma) |
| --- | --- | --- | --- | --- | --- | --- | --- | --- | --- | --- | --- | --- | --- |
| CNC(=O)[C@@H](NC(=O)[C@H](CCCc1ccccc1)[C@H](C)N(O)C=O)C(C)(C)C [Example 1] | 8.30 to 9.30 | 6.30 to 7.30 | 8.30 to 9.30 | 6.30 to 7.30 |  | ++++ (>100% Inhibition (Tumor Regression)) | 6.30 to 7.30 | ++ (51-75% Inhibition) | ++ (51-75% Inhibition) | < 6.30 | + (26-50% Inhibition) | ++ (51-75% Inhibition) | + (26-50% Inhibition) |
